Measured values reported in PubChem BioAssay (NCI).
Where “and” joins values, the source holds several entries; their conditions need not be identical. Identical values can stand only once.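 96-well plates; 48 h exposure; 5 concentrations. Endpoints by linear interpolation between flanking doses. Not reached: highest tested concentration assigned. The concentration for 50% growth inhibition is given as GI50. TGI marks complete inhibition of growth.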

Key:
Test in all cases: NCI tumour cell line growth inhibition, 48 h; in the data active means GI50 below about 0.43 µM; inactive means the rest
786-0 renal = tested on: 786-0 renal
A498 renal = tested on: A498 renal
A549 NSCLC = tested on: A549 NSCLC
ACHN renal = tested on: ACHN renal
BT-549 breast = tested on: BT-549 breast
CCRF-CEM leukemia = tested on: CCRF-CEM leukemia
COLO 205 colon = tested on: COLO 205 colon
DLD-1 colon = tested on: DLD-1 colon
DMS 114 small cell lung = tested on: DMS 114 small cell lung
DMS 273 small cell lung = tested on: DMS 273 small cell lung
DU-145 prostate = tested on: DU-145 prostate
EKVX NSCLC = tested on: EKVX NSCLC
HCC-2998 colon = tested on: HCC-2998 colon
HCT-116 colon = tested on: HCT-116 colon
HCT-15 colon = tested on: HCT-15 colon
HL-60(TB) leukemia = tested on: HL-60(TB) leukemia
HOP-62 NSCLC = tested on: HOP-62 NSCLC
HOP-92 NSCLC = tested on: HOP-92 NSCLC
HS 578T breast = tested on: HS 578T breast
HT29 colon = tested on: HT29 colon
IGROV1 ovarian = tested on: IGROV1 ovarian
K-562 leukemia = tested on: K-562 leukemia
KM12 colon = tested on: KM12 colon
KM20L2 colon = tested on: KM20L2 colon
LOX IMVI melanoma = tested on: LOX IMVI melanoma
M14 melanoma = tested on: M14 melanoma
M19-MEL melanoma = tested on: M19-MEL melanoma
MALME-3M melanoma = tested on: MALME-3M melanoma
MCF7 breast = tested on: MCF7 breast
MDA-MB-231 breast = tested on: MDA-MB-231 breast
MDA-MB-435 = tested on: MDA-MB-435
MDA-N = tested on: MDA-N
MOLT-4 leukemia = tested on: MOLT-4 leukemia
NCI-H226 lung = tested on: NCI-H226 lung
NCI-H23 lung = tested on: NCI-H23 lung
NCI-H460 lung = tested on: NCI-H460 lung
NCI-H522 lung = tested on: NCI-H522 lung
NCI/ADR-RES ovarian = tested on: NCI/ADR-RES ovarian
OVCAR-3 ovarian = tested on: OVCAR-3 ovarian
OVCAR-4 ovarian = tested on: OVCAR-4 ovarian
OVCAR-5 ovarian = tested on: OVCAR-5 ovarian
P388 leukemia = tested on: P388 leukemia
P388/ADR leukemia = tested on: P388/ADR leukemia
PC-3 prostate = tested on: PC-3 prostate
RPMI-8226 leukemia = tested on: RPMI-8226 leukemia
RXF 393 renal = tested on: RXF 393 renal
SF-268 CNS = tested on: SF-268 CNS
SF-295 CNS = tested on: SF-295 CNS
SF-539 CNS = tested on: SF-539 CNS
SK-MEL-2 melanoma = tested on: SK-MEL-2 melanoma
SK-MEL-28 melanoma = tested on: SK-MEL-28 melanoma
SK-MEL-5 melanoma = tested on: SK-MEL-5 melanoma
SK-OV-3 ovarian = tested on: SK-OV-3 ovarian
SN12C renal = tested on: SN12C renal
SN12K1 renal = tested on: SN12K1 renal
SNB-19 CNS = tested on: SNB-19 CNS
SNB-75 CNS = tested on: SNB-75 CNS
SNB-78 CNS = tested on: SNB-78 CNS
SR leukemia = tested on: SR leukemia
SW-620 colon = tested on: SW-620 colon
T-47D breast = tested on: T-47D breast
TK-10 renal = tested on: TK-10 renal
U251 CNS = tested on: U251 CNS
UACC-257 melanoma = tested on: UACC-257 melanoma
UACC-62 melanoma = tested on: UACC-62 melanoma
UO-31 renal = tested on: UO-31 renal
XF 498 CNS = tested on: XF 498 CNS
HOP-18 NSCLC = tested on: HOP-18 NSCLC
LXFL 529 NSCLC = tested on: LXFL 529 NSCLC

C[C@]12CC[C@H](OC3OC(CO)C(O)C(O)C3O)C[C@H]1CC[C@@H]1[C@@H]2CC[C@]2(C)[C@@H](C3=CCOC3=O)CC[C@]12O (stereo partly specified)
50 µM: TGI (DMS 114 small cell lung) | TGI (KM20L2 colon) | TGI (P388/ADR leukemia) | TGI (SNB-78 CNS)
active: GI50 (ACHN renal) 0.183 µM | GI50 (SF-539 CNS) 0.198 µM
26.4 µM and > 100 µM: TGI (NCI-H226 lung)
50 µM and > 100 µM: TGI (A549 NSCLC) | TGI (CCRF-CEM leukemia) | TGI (COLO 205 colon) | TGI (HCC-2998 colon) | TGI (HCT-116 colon) | TGI (HCT-15 colon) | TGI (HT29 colon) | TGI (IGROV1 ovarian) | TGI (K-562 leukemia) | TGI (KM12 colon) | TGI (MOLT-4 leukemia) | TGI (NCI-H23 lung) | TGI (NCI-H522 lung) | TGI (NCI/ADR-RES ovarian) | TGI (OVCAR-3 ovarian) | TGI (OVCAR-4 ovarian) | TGI (SF-268 CNS) | TGI (SK-MEL-2 melanoma) | TGI (SK-MEL-28 melanoma) | TGI (SN12C renal) | TGI (SNB-19 CNS) | TGI (SW-620 colon) | TGI (UACC-257 melanoma) | TGI (UO-31 renal)
29.3 µM and > 100 µM: TGI (EKVX NSCLC)
37.9 µM: TGI (M19-MEL melanoma)
30.8 µM and > 100 µM: TGI (UACC-62 melanoma)
25.1 µM: TGI (DMS 273 small cell lung)
> 50 µM: TGI (DLD-1 colon)
7.96 µM and 1.6 µM: TGI (SF-539 CNS)
19.5 µM and > 100 µM: TGI (RPMI-8226 leukemia)
41.5 µM: TGI (SN12K1 renal)
20.4 µM and > 100 µM: TGI (MALME-3M melanoma)
21.1 µM and > 100 µM: TGI (A498 renal)
47.2 µM and > 100 µM: TGI (MCF7 breast) | TGI (U251 CNS)
45.7 µM and > 100 µM: TGI (SK-MEL-5 melanoma)
13.8 µM and > 100 µM and 50.3 µM: TGI (HOP-62 NSCLC)
> 100 µM: TGI (786-0 renal) | TGI (ACHN renal) | TGI (BT-549 breast) | TGI (DU-145 prostate) | TGI (HS 578T breast) | TGI (M14 melanoma) | TGI (MDA-MB-231 breast) | TGI (MDA-MB-435) | TGI (MDA-N) | TGI (OVCAR-5 ovarian) | TGI (PC-3 prostate) | TGI (SK-OV-3 ovarian) | TGI (SR leukemia) | TGI (T-47D breast) | TGI (TK-10 renal)
37 µM and > 100 µM: TGI (RXF 393 renal)
24.6 µM and > 100 µM and 70.7 µM: TGI (SF-295 CNS)
25.3 µM and > 100 µM: TGI (LOX IMVI melanoma)
29.4 µM: TGI (NCI-H460 lung)
inactive: GI50 (786-0 renal) 15.4 µM | GI50 (A498 renal) > 100 µM | GI50 (A549 NSCLC) > 100 µM and 84.5 µM | GI50 (CCRF-CEM leukemia) 23.4 µM and > 100 µM | GI50 (COLO 205 colon) > 100 µM | GI50 (DU-145 prostate) 70.6 µM | GI50 (EKVX NSCLC) > 100 µM | GI50 (HCC-2998 colon) > 100 µM | GI50 (HCT-116 colon) > 100 µM and 51.3 µM | GI50 (HCT-15 colon) > 100 µM | GI50 (HL-60(TB) leukemia) > 100 µM | GI50 (HOP-92 NSCLC) > 100 µM | GI50 (HT29 colon) > 100 µM | GI50 (IGROV1 ovarian) > 100 µM | GI50 (K-562 leukemia) > 100 µM | GI50 (KM12 colon) > 100 µM | GI50 (LOX IMVI melanoma) > 100 µM | GI50 (MALME-3M melanoma) 23 µM and 16.2 µM | GI50 (MCF7 breast) > 100 µM | GI50 (MOLT-4 leukemia) 22.5 µM and > 100 µM | GI50 (NCI-H23 lung) > 100 µM | GI50 (NCI-H460 lung) 0.943 µM and 4.26 µM | GI50 (NCI-H522 lung) 74.9 µM and 10.1 µM | GI50 (NCI/ADR-RES ovarian) > 100 µM | GI50 (OVCAR-3 ovarian) 42.1 µM and > 100 µM | GI50 (OVCAR-4 ovarian) > 100 µM and 20.7 µM | GI50 (OVCAR-5 ovarian) > 100 µM | GI50 (RXF 393 renal) > 100 µM and 89.2 µM | GI50 (SF-268 CNS) > 100 µM and 27.1 µM | GI50 (SK-MEL-2 melanoma) > 100 µM | GI50 (SK-MEL-28 melanoma) > 100 µM | GI50 (SK-MEL-5 melanoma) > 100 µM | GI50 (SK-OV-3 ovarian) > 100 µM | GI50 (SN12C renal) > 100 µM | GI50 (SNB-19 CNS) 23.4 µM and > 100 µM | GI50 (SW-620 colon) > 100 µM | GI50 (T-47D breast) 4.89 µM | GI50 (UACC-257 melanoma) 21.9 µM and > 100 µM | GI50 (UO-31 renal) > 100 µM
28 µM and > 100 µM: TGI (HL-60(TB) leukemia)
31.6 µM and > 100 µM: TGI (SNB-75 CNS)
20.9 µM: TGI (P388 leukemia)
31.1 µM and > 100 µM: TGI (HOP-92 NSCLC)
11.2 µM: TGI (XF 498 CNS)

CC(=O)O[C@H]1C(=O)[C@@]2(C)[C@H]([C@H](OC(=O)c3ccccc3)[C@]3(O)C[C@H](OC(=O)[C@H](O)[C@@H](NC(=O)c4ccccc4)c4ccccc4)C(C)=C1C3(C)C)[C@]1(OC(C)=O)CO[C@@H]1C[C@@H]2O
25 µM and > 100 µM and 67.7 µM: TGI (A549 NSCLC)
0.0355 µM: TGI (XF 498 CNS)
active: GI50 (DLD-1 colon) 0.0551 µM | GI50 (LXFL 529 NSCLC) 0.00356 µM | GI50 (MDA-N) 0.0025 µM and 0.0231 µM | GI50 (SNB-78 CNS) 0.087 µM
3.68 µM: TGI (DMS 273 small cell lung)
24.3 µM and 45.1 µM: TGI (SNB-78 CNS)
15.1 µM and 88.4 µM and 56.1 µM: TGI (MCF7 breast)
0.0217 µM: TGI (DMS 114 small cell lung)
25 µM: TGI (HOP-18 NSCLC) | TGI (P388 leukemia) | TGI (P388/ADR leukemia) | TGI (SN12K1 renal)
55.2 µM: TGI (LXFL 529 NSCLC)
24.4 µM and > 100 µM: TGI (DLD-1 colon)
25 µM and > 71 µM: TGI (SK-MEL-28 melanoma)
15.1 µM and > 100 µM and 37.5 µM: TGI (NCI/ADR-RES ovarian)
